Calls of active or inactive are those of the source. The calls are words filed in the database; no cut-off is given here.
Legend:
NCI-H23 [1] = assay: Growth inhibition of human NCI-H23 cells after 48 hrs by SRB assay; type: functional; conditions: NCI-H23, 48 h
HCT-15 [2] = assay: Growth inhibition of human HCT15 cells after 48 hrs by SRB assay; type: functional; conditions: HCT-15, 48 h
[3] = target: Rho-related GTP-binding protein RhoB (Homo sapiens) (UniProt P62745); assay: Transactivation of RhoB (unknown origin) transfected in human HeLa cells at 5 uM measured over 10 secs by dual luciferase reporter gene assay; type: cell-based
Sequence of Rho-related GTP-binding protein RhoB (Homo sapiens) (P62745 whole entry): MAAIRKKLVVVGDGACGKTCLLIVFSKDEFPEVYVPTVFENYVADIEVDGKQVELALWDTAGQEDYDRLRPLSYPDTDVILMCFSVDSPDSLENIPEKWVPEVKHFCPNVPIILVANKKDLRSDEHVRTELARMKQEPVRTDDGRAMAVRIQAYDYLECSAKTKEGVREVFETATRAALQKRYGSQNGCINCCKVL

NUGC-3 [4] = assay: Growth inhibition of human NUGC3 cells after 48 hrs by SRB assay; type: functional; conditions: NUGC-3, 48 h
ACHN [5] = assay: Growth inhibition of human ACHN cells after 48 hrs by SRB assay; type: functional
MDA-MB-231 [6] = assay: Growth inhibition of human MDA-MB-231 cells after 48 hrs by SRB assay; type: functional; conditions: MDA-MB-231, 48 h
PC-3 [7] = assay: Growth inhibition of human PC3 cells after 48 hrs by SRB assay; type: functional; conditions: PC-3, 48 h
PC-3 [8] = assay: Growth of human PC3 cells at 10 uM after 48 hrs by SRB assay; conditions: PC-3, 48 h
NUGC-3 [9] = assay: Growth of human NUGC3 cells at 1 uM after 48 hrs by SRB assay; conditions: NUGC-3, 48 h
ACHN [10] = assay: Growth of human ACHN cells at 10 uM after 48 hrs by SRB assay
HCT-15 [11] = assay: Growth of human HCT15 cells at 3 uM after 48 hrs by SRB assay; conditions: HCT-15, 48 h
ACHN [12] = assay: Growth of human ACHN cells at 0.1 uM after 48 hrs by SRB assay
ACHN [13] = assay: Growth of human ACHN cells at 0.3 uM after 48 hrs by SRB assay
NUGC-3 [14] = assay: Growth of human NUGC3 cells at 0.1 uM after 48 hrs by SRB assay; conditions: NUGC-3, 48 h
NUGC-3 [15] = assay: Growth of human NUGC3 cells at 0.3 uM after 48 hrs by SRB assay; conditions: NUGC-3, 48 h
HCT-15 [16] = assay: Growth of human HCT15 cells at 0.3 uM after 48 hrs by SRB assay; conditions: HCT-15, 48 h
NCI-H23 [17] = assay: Growth of human NCI-H23 cells at 10 uM after 48 hrs by SRB assay; conditions: NCI-H23, 48 h
NCI-H23 [18] = assay: Growth of human NCI-H23 cells at 0.3 uM after 48 hrs by SRB assay; conditions: NCI-H23, 48 h
MDA-MB-231 [19] = assay: Growth of human MDA-MB-231 cells at 1 uM after 48 hrs by SRB assay; conditions: MDA-MB-231, 48 h
MDA-MB-231 [20] = assay: Growth of human MDA-MB-231 cells at 10 uM after 48 hrs by SRB assay; conditions: MDA-MB-231, 48 h
MDA-MB-231 [21] = assay: Growth of human MDA-MB-231 cells at 0.1 uM after 48 hrs by SRB assay; conditions: MDA-MB-231, 48 h
MDA-MB-231 [22] = assay: Growth of human MDA-MB-231 cells at 3 uM after 48 hrs by SRB assay; values are per cent of control; conditions: MDA-MB-231, 48 h
PC-3 [23] = assay: Growth inhibition of human PC3 cells at 1 uM after 48 hrs by SRB assay; values are per cent of control; conditions: PC-3, 48 h
PC-3 [24] = assay: Growth inhibition of human PC3 cells at 3 uM after 48 hrs by SRB assay; values are per cent of control; conditions: PC-3, 48 h
ACHN [25] = assay: Growth inhibition of human ACHN cells at 3 uM after 48 hrs by SRB assay; values are per cent of control
ACHN [26] = assay: Growth inhibition of human ACHN cells at 1 uM after 48 hrs by SRB assay; values are per cent of control
NUGC-3 [27] = assay: Growth inhibition of human NUGC3 cells at 3 uM after 48 hrs by SRB assay; values are per cent of control; conditions: NUGC-3, 48 h
PC-3 [28] = assay: Growth inhibition of human PC3 cells at 0.1 uM after 48 hrs by SRB assay; values are per cent of control; conditions: PC-3, 48 h
PC-3 [29] = assay: Growth inhibition of human PC3 cells at 0.3 uM after 48 hrs by SRB assay; values are per cent of control; conditions: PC-3, 48 h
HCT-15 [30] = assay: Growth inhibition of human HCT15 cells at 1 uM after 48 hrs by SRB assay; values are per cent of control; conditions: HCT-15, 48 h
NUGC-3 [31] = assay: Growth inhibition of human NUGC3 cells at 10 uM after 48 hrs by SRB assay; values are per cent of control; conditions: NUGC-3, 48 h
HCT-15 [32] = assay: Growth inhibition of human HCT15 cells at 10 uM after 48 hrs by SRB assay; values are per cent of control; conditions: HCT-15, 48 h
NCI-H23 [33] = assay: Growth inhibition of human NCI-H23 cells at 1 uM after 48 hrs by SRB assay; values are per cent of control; conditions: NCI-H23, 48 h
NCI-H23 [34] = assay: Growth inhibition of human NCI-H23 cells at 3 uM after 48 hrs by SRB assay; values are per cent of control; conditions: NCI-H23, 48 h
HCT-15 [35] = assay: Growth inhibition of human HCT15 cells at 0.1 uM after 48 hrs by SRB assay; values are per cent of control; conditions: HCT-15, 48 h
NCI-H23 [36] = assay: Growth inhibition of human NCI-H23 cells at 0.1 uM after 48 hrs by SRB assay; values are per cent of control; conditions: NCI-H23, 48 h
MDA-MB-231 [37] = assay: Growth inhibition of human MDA-MB-231 cells at 0.3 uM after 48 hrs by SRB assay; values are per cent of control; conditions: MDA-MB-231, 48 h

SMILES | GI50 (NCI-H23 [1]) [µM] | GI50 (HCT-15 [2]) [µM] | Activity [3] | GI50 (NUGC-3 [4]) [µM] | GI50 (ACHN [5]) [µM] | GI50 (MDA-MB-231 [6]) [µM] | GI50 (PC-3 [7]) [µM] | growth, % of control at 10 µM (PC-3 [8]) [%] | growth, % of control at 1 µM (NUGC-3 [9]) [%] | growth, % of control at 10 µM (ACHN [10]) [%] | growth, % of control at 3 µM (HCT-15 [11]) [%] | growth, % of control at 0.1 µM (ACHN [12]) [%] | growth, % of control at 0.3 µM (ACHN [13]) [%] | growth, % of control at 0.1 µM (NUGC-3 [14]) [%] | growth, % of control at 0.3 µM (NUGC-3 [15]) [%] | growth, % of control at 0.3 µM (HCT-15 [16]) [%] | growth, % of control at 10 µM (NCI-H23 [17]) [%] | growth, % of control at 0.3 µM (NCI-H23 [18]) [%] | growth, % of control at 1 µM (MDA-MB-231 [19]) [%] | growth, % of control at 10 µM (MDA-MB-231 [20]) [%] | also measured
CCCCCCCCCCCCCCCCS(=O)(=O)N(C)CC[N+](C)(C)C | 1.29 | 0.7 | Active | 0.33 | 1.6 | 0.93 | 0.62 | -3.1 | 32.2 | 25.5 | 22.4 | 99.4 | 90.3 | 89.4 | 74.1 | 91.4 | 6.8 | 101 | 66.8 | 8 | growth, % of control at 0.1 µM (MDA-MB-231 [21]): 98.2%; growth, % of control at 3 µM (MDA-MB-231 [22]): 32.7%; growth, % of control at 1 µM (PC-3 [23]): 56.8%; growth, % of control at 3 µM (PC-3 [24]): 17.6%; growth, % of control at 3 µM (ACHN [25]): 51.4%; growth, % of control at 1 µM (ACHN [26]): 69.7%; growth, % of control at 3 µM (NUGC-3 [27]): 14.4%; growth, % of control at 0.1 µM (PC-3 [28]): 99.4%; growth, % of control at 0.3 µM (PC-3 [29]): 90.3%; growth, % of control at 1 µM (HCT-15 [30]): 55.3%; growth, % of control at 10 µM (NUGC-3 [31]): 2.7%; growth, % of control at 10 µM (HCT-15 [32]): 19.5%; growth, % of control at 1 µM (NCI-H23 [33]): 80.3%; growth, % of control at 3 µM (NCI-H23 [34]): 41.8%; growth, % of control at 0.1 µM (HCT-15 [35]): 95.7%; growth, % of control at 0.1 µM (NCI-H23 [36]): 103%; growth, % of control at 0.3 µM (MDA-MB-231 [37]): 95.7%
CCCCCCCCCCCCCCS(=O)(=O)N(C)CC[N+](C)(CC)CC | 0.71 | 2.35 | Active | 0.52 | 1.74 | 1.22 | 0.82 | -1.7 | 45.7 | 16.4 | 60.5 | 100 | 102 | 98.7 | 104 | 96.3 | -0.5 | 91 | 81.5 | 16.5 | growth, % of control at 0.1 µM (MDA-MB-231 [21]): 103%; growth, % of control at 3 µM (MDA-MB-231 [22]): 34.3%; growth, % of control at 1 µM (PC-3 [23]): 79.9%; growth, % of control at 3 µM (PC-3 [24]): 10.5%; growth, % of control at 3 µM (ACHN [25]): 51.7%; growth, % of control at 1 µM (ACHN [26]): 87.4%; growth, % of control at 3 µM (NUGC-3 [27]): 10.6%; growth, % of control at 0.1 µM (PC-3 [28]): 114%; growth, % of control at 0.3 µM (PC-3 [29]): 108%; growth, % of control at 1 µM (HCT-15 [30]): 88.4%; growth, % of control at 10 µM (NUGC-3 [31]): 3.1%; growth, % of control at 10 µM (HCT-15 [32]): 27%; growth, % of control at 1 µM (NCI-H23 [33]): 65.4%; growth, % of control at 3 µM (NCI-H23 [34]): 16.4%; growth, % of control at 0.1 µM (HCT-15 [35]): 95%; growth, % of control at 0.1 µM (NCI-H23 [36]): 96.5%; growth, % of control at 0.3 µM (MDA-MB-231 [37]): 101%
C=CC[N+](CC)(CC)CCN(C)S(=O)(=O)CCCCCCCCCCCCCC | 0.3 | 2.03 | Active | 0.21 | 1.35 | 0.71 | 0.53 | 4.6 | 14.3 | 20.3 | 62.9 | 92.8 | 90.5 | 79.1 | 70.5 | 93.9 | -5.7 | 76.5 | 54.3 | 14.5 | growth, % of control at 0.1 µM (MDA-MB-231 [21]): 89.6%; growth, % of control at 3 µM (MDA-MB-231 [22]): 32.2%; growth, % of control at 1 µM (PC-3 [23]): 46.2%; growth, % of control at 3 µM (PC-3 [24]): 22.7%; growth, % of control at 3 µM (ACHN [25]): 46.6%; growth, % of control at 1 µM (ACHN [26]): 73.4%; growth, % of control at 3 µM (NUGC-3 [27]): -2.9%; growth, % of control at 0.1 µM (PC-3 [28]): 91.5%; growth, % of control at 0.3 µM (PC-3 [29]): 89.8%; growth, % of control at 1 µM (HCT-15 [30]): 85.1%; growth, % of control at 10 µM (NUGC-3 [31]): -6.4%; growth, % of control at 10 µM (HCT-15 [32]): 19.2%; growth, % of control at 1 µM (NCI-H23 [33]): 31.1%; growth, % of control at 3 µM (NCI-H23 [34]): 10%; growth, % of control at 0.1 µM (HCT-15 [35]): 91.8%; growth, % of control at 0.1 µM (NCI-H23 [36]): 82.2%; growth, % of control at 0.3 µM (MDA-MB-231 [37]): 87.4%
